According to EP4268824A1 (Manros Therapeutics, priority 2022, dated 2023):
pIC50: −log10 of the molar value. Read-outs that look alike come from different tables or passages of the source.

Tests used:
[1] = Bettayeb et al. 2008; Popowycz et al. 2009; cited from earlier work
[2] = biological target: kinase; conditions: Bettayeb et al. 2008; Popowycz et al. 2009; cited from earlier work
[3] = biological target: T1, F508del-CFTR (Homo sapiens, UniProt P13569, DEL508-508); test: CFTR activation assay: short-circuit current measurements (Ussing chamber) in CFBE cells treated 24 h with CFTR modulator(s) plus compound; type: cell-based; conditions: for F508del-CFTR activity as percentage of F508del-CFTR activity in the presence of Trikafta alone (100%): CFE cells, with Trikafta
T1 construct: expressed in transfected cells; host or cells: CFBE41o- cells (CFBE F508del-CFTR), puromycin-selected
Description: • FIG 1. represents the conductance measurement as a function of time for assessing the activity of F508del-CFTR in CFBE cells using the Ussing chamber as set forth in example 13. Cells are incubated for 24 hours with either Trikafta® alone or Trikafta® + a compound of formula (I) as defined herein after. Conductance is measured as a function of time. […] This is the measure which are reported in all Tables shown below. • FIG 2. The correcting effect of Trikafta® on F508del-CFTR in a pulmonary epithelial cell line derived from a F508del-CFTR CF patient was tested as set forth in example 13 herein after in the presence of increasing concentrations of compound (44) as defined herein after and compound (107) as defined herein after. Dose-response curves were built from the activation and inhibition data (see FIG. 1). 100% represents the activity of Trikafta® alone. • FIG 3. […] CFE cells were treated with Trikafta® 100%, 33%, or 11%, in the absence or presence of 1 µM of compound (107). F508del-CFTR activity was monitored as described in the Experimental section and above. Activity is reported as percentage of δF508del-CFTR activity in the presence of Trikafta® alone (100%). The fold change over the activity of Trikafta® alone is indicated in parentheses. • FIG 4. The correcting effect of further CFTR modulators than Trikafta®, i.e. Galapagos compounds as defined herein after (GLPG 222 (G1), GLPG 1837 (G2), GLPG 2451 (G3)) (1 µM each) on F508del-CFTR in a pulmonary epithelial cell line derived from a F508del-CFTR CF patient was tested as set forth in example 13 herein after in the presence of increasing concentrations of compound (107) as defined herein after. Dose-response curves were built from the activation and inhibition data (see FIG. 1). 100% represents the activity of each CFTR modulator alone.
The activity of F508del-CFTR was indeed estimated according to the method described below in example 13. This method makes use of CFBE cells, an immortalized cell line generated from bronchial epithelium of a CF patient homozygous for F508del-CFTR [Kunzelmann, K. et al., 1993. An immortalized cystic fibrosis tracheal epithelial cell line homozygous for the F508del CFTR mutation. Am. J. Respir. Cell Mol. Biol. 8, 522-529.]. Cells are exposed for 24 hours to a combination of Trikafta® and a compound of formula (I) as defined herein after to be evaluated, and the activity of F508del-CFTR is measured by conductance in a Ussing chamber. The activation is initiated by addition of Forskolin (1 µM). […] All compounds tested were evaluated in combination with Trikafta®. In most instances, compounds were tested in triplicates at 0.1, 1 and 10 µM.
Wild-type CFBE cells (containing full-length, unmutated CFTR) are used as a reference.
F508del-CFTR expressing cells used in this present study were treated with CFTR modulators 24 h prior the experiments. The following CFTR modulators were used: Vx770 (Ivacaftor) (Selleckchem, S 1144) (Selleckchem, 24, rue des Tuileries, BP684, 67460 Souffelweyersheim, France), Vx445 (Elexacaftor) (Selleckchem, SE-S8851), Vx661 (Tezacaftor) (TargetMol, HY-15448) (TargetMol, Tebu-bio, 39 rue de Houdan, BP 15, 78612 Le-Perray-en-Yvelines cedex, France). Trikafta® is the combination of 1 µM Vx770, 3 µM Vx 445 and […] Vx661.
CFBE cell line stably expressing F508del-CFTR or WT-CFTR (CFBE WT-CFTR) were grown at 37°C in 5% CO2 - 95% air and media was replaced every 2 days.

[4] = biological target: CLK4 (Homo sapiens, UniProt Q9HAZ1); test: Kinase inhibition, dose-response; type: biochemical
Excerpt: All compounds were additionally tested over a range of concentrations for their ability to inhibit a series of 14 kinases. […] Their F508del-CFTR activity is reported as percentage of F508del-CFTR activity in the presence of Trikafta alone (100%).

[5] = biological target: CDK2 (Homo sapiens, UniProt P24941); test: Kinase inhibition, dose-response; type: biochemical; conditions: > 10: no inhibition at 10 µM, the highest dose tested
Description: (§1) All compounds were additionally tested over a range of concentrations for their ability to inhibit a series of 14 kinases. IC50 values were calculated from the dose-response curves and are reported in µM. > 10, no inhibition at 10 µM, the highest dose tested (see table 6 below). [drawing 409] Table 5: CFE cells were treated with Trikafta in the presence of increasing concentrations of various compounds and their N7-methylated counterparts. Their F508del-CFTR activity is reported as percentage of F508del-CFTR activity in the presence of Trikafta alone (100%).

[6] = biological target: CDK9 (Homo sapiens, UniProt P50750); test: Kinase inhibition, dose-response; type: biochemical; conditions: > 10: no inhibition at 10 µM, the highest dose tested
CDK9, sequence (P50750 whole entry, species assumed): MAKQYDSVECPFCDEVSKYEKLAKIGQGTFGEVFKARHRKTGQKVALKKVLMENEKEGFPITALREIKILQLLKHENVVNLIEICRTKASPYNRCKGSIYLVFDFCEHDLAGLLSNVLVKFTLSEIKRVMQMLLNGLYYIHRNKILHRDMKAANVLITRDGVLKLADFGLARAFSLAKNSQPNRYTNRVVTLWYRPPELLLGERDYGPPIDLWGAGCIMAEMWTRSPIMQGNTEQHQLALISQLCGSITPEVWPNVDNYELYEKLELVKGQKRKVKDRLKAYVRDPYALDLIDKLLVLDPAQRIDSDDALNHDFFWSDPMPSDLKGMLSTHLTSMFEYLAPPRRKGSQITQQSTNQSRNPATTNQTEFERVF
CDK9, sequence (O60563 whole entry partner, species assumed): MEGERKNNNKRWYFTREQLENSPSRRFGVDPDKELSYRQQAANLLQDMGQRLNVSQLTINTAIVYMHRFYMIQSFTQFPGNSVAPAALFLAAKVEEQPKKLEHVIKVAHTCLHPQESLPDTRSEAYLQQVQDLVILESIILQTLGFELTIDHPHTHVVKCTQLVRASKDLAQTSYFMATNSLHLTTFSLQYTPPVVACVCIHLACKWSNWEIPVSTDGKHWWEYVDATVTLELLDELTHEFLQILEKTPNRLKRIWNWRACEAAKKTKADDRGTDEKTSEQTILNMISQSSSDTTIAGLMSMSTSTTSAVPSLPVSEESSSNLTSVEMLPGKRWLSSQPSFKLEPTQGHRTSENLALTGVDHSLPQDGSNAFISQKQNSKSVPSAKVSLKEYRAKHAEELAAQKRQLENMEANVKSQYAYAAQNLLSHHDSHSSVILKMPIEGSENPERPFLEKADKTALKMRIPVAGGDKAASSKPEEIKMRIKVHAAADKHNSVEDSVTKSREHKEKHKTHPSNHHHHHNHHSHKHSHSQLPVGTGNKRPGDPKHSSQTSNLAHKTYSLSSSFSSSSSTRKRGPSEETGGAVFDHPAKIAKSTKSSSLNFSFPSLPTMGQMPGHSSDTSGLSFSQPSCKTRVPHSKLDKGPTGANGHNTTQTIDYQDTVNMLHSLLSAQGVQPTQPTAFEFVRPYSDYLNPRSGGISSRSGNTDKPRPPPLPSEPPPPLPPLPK
Description: as §1

[7] = biological target: CLK3 (Homo sapiens, UniProt P49761); test: Kinase inhibition, dose-response; type: biochemical; conditions: > 10: no inhibition at 10 µM, the highest dose tested
CLK3, sequence (P49761 whole entry, species assumed): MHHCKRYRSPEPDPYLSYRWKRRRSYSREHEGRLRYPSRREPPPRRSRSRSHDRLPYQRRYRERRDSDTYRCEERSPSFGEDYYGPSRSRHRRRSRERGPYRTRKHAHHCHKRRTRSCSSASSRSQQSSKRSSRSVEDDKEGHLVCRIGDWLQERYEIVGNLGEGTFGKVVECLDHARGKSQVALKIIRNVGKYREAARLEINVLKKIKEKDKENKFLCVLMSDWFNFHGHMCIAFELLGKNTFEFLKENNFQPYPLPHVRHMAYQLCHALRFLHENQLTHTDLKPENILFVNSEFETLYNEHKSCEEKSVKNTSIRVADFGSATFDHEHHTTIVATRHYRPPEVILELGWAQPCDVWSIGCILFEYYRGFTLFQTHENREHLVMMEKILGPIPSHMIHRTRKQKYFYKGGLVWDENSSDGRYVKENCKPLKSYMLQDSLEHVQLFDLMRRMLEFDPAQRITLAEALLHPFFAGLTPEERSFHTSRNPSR
Description: as §1

[8] = biological target: CLK2 (Homo sapiens, UniProt P49760); test: Kinase inhibition, dose-response; type: biochemical; conditions: > 10: no inhibition at 10 µM, the highest dose tested
Description: as §1

[9] = biological target: CK1α1 (Homo sapiens, UniProt P48729); test: Kinase inhibition, dose-response; type: biochemical; conditions: > 10: no inhibition at 10 µM, the highest dose tested
CK1α1, sequence (P48729 whole entry): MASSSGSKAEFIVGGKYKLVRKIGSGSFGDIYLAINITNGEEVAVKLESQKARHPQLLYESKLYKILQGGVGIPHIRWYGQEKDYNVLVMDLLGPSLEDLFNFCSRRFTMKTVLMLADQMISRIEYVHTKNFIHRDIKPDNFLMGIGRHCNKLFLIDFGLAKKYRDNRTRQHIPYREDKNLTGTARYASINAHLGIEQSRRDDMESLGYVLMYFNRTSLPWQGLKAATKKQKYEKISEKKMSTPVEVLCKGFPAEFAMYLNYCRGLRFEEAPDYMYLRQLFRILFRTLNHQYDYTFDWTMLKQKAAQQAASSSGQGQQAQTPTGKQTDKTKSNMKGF
Description: as §1

[10] = biological target: CK1δ (Homo sapiens, UniProt P48730); test: Kinase inhibition, dose-response; type: biochemical; conditions: > 10: no inhibition at 10 µM, the highest dose tested
CK1δ, sequence (P48730 whole entry): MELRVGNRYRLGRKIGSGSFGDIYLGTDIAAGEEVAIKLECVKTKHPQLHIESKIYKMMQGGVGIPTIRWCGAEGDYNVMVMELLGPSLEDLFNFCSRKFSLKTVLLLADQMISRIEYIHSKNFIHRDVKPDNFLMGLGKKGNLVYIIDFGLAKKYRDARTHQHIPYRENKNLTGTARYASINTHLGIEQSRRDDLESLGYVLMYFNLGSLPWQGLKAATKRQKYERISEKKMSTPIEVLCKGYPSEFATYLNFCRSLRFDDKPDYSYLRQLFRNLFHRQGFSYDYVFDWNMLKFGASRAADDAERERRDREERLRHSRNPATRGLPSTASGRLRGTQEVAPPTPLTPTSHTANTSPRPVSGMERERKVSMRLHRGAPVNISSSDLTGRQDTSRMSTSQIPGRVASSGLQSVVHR
Description: as §1

[11] = biological target: CDK7 (Homo sapiens, UniProt P50613); test: Kinase inhibition, dose-response; type: biochemical; conditions: > 10: no inhibition at 10 µM, the highest dose tested
CDK7, sequence (P50613 whole entry, species assumed): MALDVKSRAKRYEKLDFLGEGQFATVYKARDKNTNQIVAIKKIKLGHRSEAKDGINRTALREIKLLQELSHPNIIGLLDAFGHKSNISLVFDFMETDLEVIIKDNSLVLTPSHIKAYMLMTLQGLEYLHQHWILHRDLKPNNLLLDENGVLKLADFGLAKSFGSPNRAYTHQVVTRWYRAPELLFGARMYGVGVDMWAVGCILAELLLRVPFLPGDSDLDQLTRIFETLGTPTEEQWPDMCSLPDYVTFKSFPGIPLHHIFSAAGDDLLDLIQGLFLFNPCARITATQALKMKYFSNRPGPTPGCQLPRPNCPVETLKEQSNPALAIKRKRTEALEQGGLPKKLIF
CDK7, sequence (P51946 whole entry partner, species assumed): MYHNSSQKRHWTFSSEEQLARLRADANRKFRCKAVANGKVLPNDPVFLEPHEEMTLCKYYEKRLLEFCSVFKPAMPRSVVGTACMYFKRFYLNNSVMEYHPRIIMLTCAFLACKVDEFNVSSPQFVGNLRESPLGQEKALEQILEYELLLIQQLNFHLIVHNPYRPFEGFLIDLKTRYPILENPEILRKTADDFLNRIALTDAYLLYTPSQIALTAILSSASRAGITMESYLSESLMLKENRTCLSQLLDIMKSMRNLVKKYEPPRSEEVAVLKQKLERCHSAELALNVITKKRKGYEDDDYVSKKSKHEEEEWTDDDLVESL
CDK7, sequence (P51948 whole entry partner, species assumed): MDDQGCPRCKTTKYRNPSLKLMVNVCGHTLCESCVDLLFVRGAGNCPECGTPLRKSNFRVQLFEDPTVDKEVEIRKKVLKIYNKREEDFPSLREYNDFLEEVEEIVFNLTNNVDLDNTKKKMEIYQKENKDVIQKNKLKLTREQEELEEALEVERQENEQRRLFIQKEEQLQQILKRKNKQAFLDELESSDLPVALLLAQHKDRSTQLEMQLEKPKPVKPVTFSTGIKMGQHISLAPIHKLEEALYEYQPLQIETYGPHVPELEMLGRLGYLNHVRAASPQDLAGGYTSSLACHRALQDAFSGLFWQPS
Description: as §1

[12] = biological target: CLK1 (Homo sapiens, UniProt P49759); test: Kinase inhibition, dose-response; type: biochemical; conditions: > 10: no inhibition at 10 µM, the highest dose tested
CLK1, sequence (P49759 whole entry): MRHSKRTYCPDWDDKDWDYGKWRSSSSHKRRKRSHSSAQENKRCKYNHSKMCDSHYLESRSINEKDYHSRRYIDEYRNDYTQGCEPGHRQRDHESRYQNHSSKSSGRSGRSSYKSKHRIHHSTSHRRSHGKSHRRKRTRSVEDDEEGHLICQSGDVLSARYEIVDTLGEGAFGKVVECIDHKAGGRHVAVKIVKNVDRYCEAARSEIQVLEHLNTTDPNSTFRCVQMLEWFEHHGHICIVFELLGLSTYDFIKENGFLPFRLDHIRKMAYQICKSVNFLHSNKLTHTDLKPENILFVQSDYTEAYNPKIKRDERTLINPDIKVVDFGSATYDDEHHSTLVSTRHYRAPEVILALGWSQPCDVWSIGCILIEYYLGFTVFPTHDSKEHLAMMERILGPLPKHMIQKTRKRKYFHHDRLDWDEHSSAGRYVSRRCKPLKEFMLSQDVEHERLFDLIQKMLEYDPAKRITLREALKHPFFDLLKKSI
Description: as §1

[13] = biological target: CK1γ2 (Homo sapiens, UniProt P78368); test: Kinase inhibition, dose-response; type: biochemical; conditions: > 10: no inhibition at 10 µM, the highest dose tested
Description: as §1

[14] = biological target: CK1ε (Homo sapiens, UniProt P49674); test: Kinase inhibition, dose-response; type: biochemical; conditions: > 10: no inhibition at 10 µM, the highest dose tested
CK1ε, sequence (P49674 whole entry): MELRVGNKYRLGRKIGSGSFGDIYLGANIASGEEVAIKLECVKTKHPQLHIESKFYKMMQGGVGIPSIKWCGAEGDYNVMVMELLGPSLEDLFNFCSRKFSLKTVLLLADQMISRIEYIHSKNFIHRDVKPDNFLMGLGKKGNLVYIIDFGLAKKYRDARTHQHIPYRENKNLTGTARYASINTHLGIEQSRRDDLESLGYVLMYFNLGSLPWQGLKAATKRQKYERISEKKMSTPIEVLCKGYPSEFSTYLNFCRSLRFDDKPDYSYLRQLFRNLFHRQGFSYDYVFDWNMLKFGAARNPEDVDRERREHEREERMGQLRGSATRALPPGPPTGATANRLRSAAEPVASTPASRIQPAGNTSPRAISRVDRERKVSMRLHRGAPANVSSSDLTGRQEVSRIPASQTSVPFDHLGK
Description: as §1

[15] = biological target: CK1γ1 (Homo sapiens, UniProt Q9HCP0); test: Kinase inhibition, dose-response; type: biochemical; conditions: > 10: no inhibition at 10 µM, the highest dose tested
CK1γ1, sequence (Q9HCP0 whole entry): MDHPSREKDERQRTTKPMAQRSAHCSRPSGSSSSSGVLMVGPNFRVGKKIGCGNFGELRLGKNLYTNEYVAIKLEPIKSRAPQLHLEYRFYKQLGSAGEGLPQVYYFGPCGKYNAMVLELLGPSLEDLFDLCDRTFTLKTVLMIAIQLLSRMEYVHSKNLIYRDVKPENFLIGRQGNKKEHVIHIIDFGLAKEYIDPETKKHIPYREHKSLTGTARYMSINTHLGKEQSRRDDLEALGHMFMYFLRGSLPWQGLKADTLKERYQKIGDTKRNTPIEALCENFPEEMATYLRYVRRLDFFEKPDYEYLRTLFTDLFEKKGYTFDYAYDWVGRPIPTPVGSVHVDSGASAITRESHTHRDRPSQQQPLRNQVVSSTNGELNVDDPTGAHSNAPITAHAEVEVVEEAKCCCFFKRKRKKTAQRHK
Description: as §1

[16] = biological target: CK1γ3 (Homo sapiens, UniProt Q9Y6M4); test: Kinase inhibition, dose-response; type: biochemical; conditions: > 10: no inhibition at 10 µM, the highest dose tested
Description: as §1

[17] = biological target: DYRK1A (Homo sapiens, UniProt Q13627); test: Kinase inhibition, dose-response; type: biochemical; conditions: > 10: no inhibition at 10 µM, the highest dose tested
Description: as §1

[18] = test system: alveolar macrophages; conditions: Riazanski et al. 2015; cited from earlier work
[19] = test system: F508del-CFTR; conditions: Norez et al. 2014; cited from earlier work
[20] = read-out: IC50 CLK4; > 10: no inhibition at 10 µM, the highest dose tested

Row | Compound | F508del-CFTR activity as percentage of F508del-CFTR activity in the presence of Trikafta alone (100%) ([3]; concentration 0.1 µM) [%] | F508del-CFTR activity as percentage of F508del-CFTR activity in the presence of Trikafta alone (100%) ([3]; concentration 1 µM) [%] | F508del-CFTR activity as percentage of F508del-CFTR activity in the presence of Trikafta alone (100%) ([3]; concentration 10 µM) [%] | pIC50 [5] | pIC50 [6] | pIC50 [7] | pIC50 [8] | pIC50 [9] | pIC50 [10] | pIC50 [11] | pIC50 [12] | pIC50 [13] | pIC50 [14] | pIC50 [15] | pIC50 [16] | pIC50 [17] | pIC50 [4, 20] | further results
1 | CC[C@H](CO)Nc1nc(NCc2ccccc2)c2ncc(C(C)C)n2n1 [compound 6, (2R)-2-[[4-(Benzylamino)-7-isopropyl-imidazo[2,1-f][1,2,4]triazin-2-yl]amino]butan-1-ol] | – | – | – | – | – | – | – | – | – | – | – | – | – | – | – | – | – | antitumor properties [1]: modest antitumor properties; kinase inhibitory activity [2]: modest kinase inhibitory activity
2 | CC(C)c1cnc2c(NCc3ccccc3)nc(N[C@@H]3CCOC3)nn12 [compound 19, N4-Benzyl-7-isopropyl-N2-[(3R)-tetrahydrofuran-3-yl]imidazo[2,1-f][1,2,4]triazine-2,4-diamine] | 112.0 | 122.2 | 155.6 | 5.89 | 5.50 | < 5.00 | 5.98 | < 5.00 | 6.23 | 6.30 | 5.93 | < 5.00 | 5.88 | < 5.00 | < 5.00 | < 5.00 | – | pIC50 ([4]; > 10: no inhibition at 10 µM, the highest dose tested; read-out: IC50 CLK4): 5.74
3 | CC(C)c1cnc2c(N(C)Cc3ccccc3)nc(N[C@@H]3CCOC3)nn12 [compound 32] | 117.9 | 113.7 | 135.1 | < 5.00 | < 5.00 | < 5.00 | < 5.00 | < 5.00 | < 5.00 | < 5.00 | < 5.00 | < 5.00 | < 5.00 | < 5.00 | < 5.00 | < 5.00 | < 5.00 | –
4 | CC(C)c1cnc2c(N(C)Cc3ccccc3)nc(NC3CCOCC3)nn12 [compound 49] | 113.0 | 125.9 | 147.1 | < 5.00 | < 5.00 | < 5.00 | < 5.00 | < 5.00 | < 5.00 | < 5.00 | < 5.00 | < 5.00 | < 5.00 | < 5.00 | < 5.00 | < 5.00 | < 5.00 | –
5 | CC[C@H](CO)Nc1nc(NCc2ccccc2)c2ncn(C(C)C)c2n1 [roscovitine] | – | – | – | – | – | – | – | – | – | – | – | – | – | – | – | – | – | activating or boosting activity on a human lung epithelium cell line with F508del-CFTR mutation, in combination with Trikafta® ([3]; result in words): no activating or boosting activity; intra-phagolysosomal pH of alveolar macrophages [18]: reduce the intra-phagolysosomal pH of alveolar macrophages; correction of the defective function of F508del-CFTR [19]: partially correct the defective function of F508del-CFTR
